From PubChem BioAssay AID248 (DTP/NCI, 2004)
Toxic doses and inconclusive results are not listed.

Tested on: L1210 leukemia ip in BDF1 mice, survival T/C
Assay: NCI In Vivo Anticancer Drug Screen. Data for tumor model L1210 Leukemia (intraperitoneal) in B6D2F1 (BDF1) mice
Conditions: endpoint: mean survival time, higher = longer survival
In short: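 Tumor cells were implanted, animals were treated, and survival was followed. The result divides the treated measurement by the vehicle-control measurement.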

[1] = dose: 100.0 mg/kg/injection, schedule: Q01DX009 (ip), vehicle: saline with Tween-80
[2] = dose: 100.0 mg/kg/injection, schedule: Q04DX003 (ip), vehicle: saline with Tween-80
[3] = dose: 200.0 mg/kg/injection, schedule: Q01DX009 (ip), vehicle: saline with Tween-80
[4] = dose: 200.0 mg/kg/injection, schedule: Q04DX003 (ip), vehicle: saline with Tween-80
[5] = dose: 400.0 mg/kg/injection, schedule: Q01DX009 (ip), vehicle: saline with Tween-80
[6] = dose: 400.0 mg/kg/injection, schedule: Q04DX003 (ip), vehicle: saline with Tween-80

For `[O-]/[N+](=C\c1ccc(/C=[N+](\[O-])c2ccccc2)cc1)c1ccccc1`, the T/C (dose: 5.0 mg/kg/injection, schedule: Q01DX001 (ip), vehicle: saline) was 97 % of control, the T/C (dose: 10.0 mg/kg/injection, schedule: Q01DX001 (ip), vehicle: saline) was 95 % of control and the T/C (dose: 20.0 mg/kg/injection, schedule: Q01DX001 (ip), vehicle: saline) was 97 % of control. For the same molecule, the T/C (dose: 40.0 mg/kg/injection, schedule: Q01DX001 (ip), vehicle: saline) was 92 % of control and the T/C (dose: 80.0 mg/kg/injection, schedule: Q01DX001 (ip), vehicle: saline) was 97 % of control.

`Ic1ncnc2nc[nH]c12` was tested, and the T/C (dose: 56.0 mg/kg/injection, schedule: Q01DX Z (ip), vehicle: carboxymethylcellulose (CMC)) was 104 % of control, the T/C (dose: 62.5 mg/kg/injection, schedule: Q01DX Z (ip), vehicle: carboxymethylcellulose (CMC)) was 115 % of control and the T/C (dose: 100.0 mg/kg/injection, schedule: Q01DX009 (ip), vehicle: Klucel (hydroxypropylcellulose) (HPC)) was 118 % of control. For the same molecule, the T/C (dose: 100.0 mg/kg/injection, schedule: Q04DX003 (ip), vehicle: other) was 106 % of control, the T/C (dose: 112.0 mg/kg/injection, schedule: Q01DX Z (ip), vehicle: carboxymethylcellulose (CMC)) was 121 % of control and the T/C (dose: 125.0 mg/kg/injection, schedule: Q01DX Z (ip), vehicle: carboxymethylcellulose (CMC)) was 110 % of control. For the same molecule, the T/C (dose: 132.0 mg/kg/injection, schedule: Q01DX009 (ip), vehicle: saline) was 122 % of control, the T/C (dose: 200.0 mg/kg/injection, schedule: Q01DX009 (ip), vehicle: Klucel (hydroxypropylcellulose) (HPC)) was 119 % of control and the T/C (dose: 200.0 mg/kg/injection, schedule: Q01DX009 (ip), vehicle: saline) was 120 % of control. The T/C (dose: 200.0 mg/kg/injection, schedule: Q04DX003 (ip), vehicle: other) was 103 % of control, the T/C (dose: 300.0 mg/kg/injection, schedule: Q01DX009 (ip), vehicle: Klucel (hydroxypropylcellulose) (HPC)) was 151 % of control and the T/C (dose: 400.0 mg/kg/injection, schedule: Q04DX003 (ip), vehicle: other) was 103 % of control.

For `COC(=O)C(=C(c1ccccc1)c1ccccc1)c1ccccc1C(=O)O`, the T/C [1] was 90 % of control, the T/C [2] was 101 % of control and the T/C [3] was 88 % of control. The T/C [4] was 93 % of control, the T/C [5] was 96 % of control and the T/C [6] was 92 % of control.

`NC(=O)CC(NC(=O)OCc1ccccc1)C(N)=O` (stereo not drawn) was tested, and the T/C (dose: 100.0 mg/kg/injection, schedule: Q04DX003 (ip), vehicle: Klucel (hydroxypropylcellulose) (HPC)) was 93 % of control, the T/C (dose: 200.0 mg/kg/injection, schedule: Q04DX003 (ip), vehicle: Klucel (hydroxypropylcellulose) (HPC)) was 87 % of control and the T/C (dose: 400.0 mg/kg/injection, schedule: Q04DX003 (ip), vehicle: Klucel (hydroxypropylcellulose) (HPC)) was 90 % of control.

In the case of `O=C(OC12CCCCC(CCCC1)O2)c1ccc([N+](=O)[O-])cc1`, the T/C (dose: 100.0 mg/kg/injection, schedule: Q01DX001 (ip), vehicle: saline) is reported as 91 % of control, the T/C (dose: 200.0 mg/kg/injection, schedule: Q01DX001 (ip), vehicle: saline) is reported as 93 % of control and the T/C (dose: 400.0 mg/kg/injection, schedule: Q01DX001 (ip), vehicle: saline) is reported as 98 % of control.

`N#CCCCN=[N+]=[N-]` was tested, and the T/C (dose: 37.5 mg/kg/injection, schedule: Q04DX003 (ip), vehicle: saline) was 104 % of control.

With `Cc1nc(N)[nH]c(=O)c1CCCNS(=O)(=O)c1ccc(C(=O)O)cc1` the T/C (dose: 200.0 mg/kg/injection, schedule: Q04DX002 (ip), vehicle: Klucel (hydroxypropylcellulose) (HPC)) was 88 % of control and the T/C (dose: 400.0 mg/kg/injection, schedule: Q04DX002 (ip), vehicle: Klucel (hydroxypropylcellulose) (HPC)) was 112 % of control.

`Cc1ccc(S(=O)(=O)N=Nc2c(O)[nH]c3ccccc23)cc1` was tested, and the T/C (dose: 75.0 mg/kg/injection, schedule: Q04DX002 (ip), vehicle: gum acacia) was 93 % of control, the T/C (dose: 150.0 mg/kg/injection, schedule: Q04DX002 (ip), vehicle: gum acacia) was 93 % of control and the T/C (dose: 300.0 mg/kg/injection, schedule: Q04DX002 (ip), vehicle: gum acacia) was 100 % of control.

For `N#CCCC[P+](c1ccccc1)(c1ccccc1)c1ccccc1`, the T/C (dose: 75.0 mg/kg/injection, schedule: Q01DX001 (ip), vehicle: other) was 97 % of control and the T/C (dose: 100.0 mg/kg/injection, schedule: Q04DX002 (ip), vehicle: Klucel (hydroxypropylcellulose) (HPC)) was 98 % of control.

For `CCOc1ccccc1NC(=O)C(Br)C(Br)C(=O)O` (stereo not drawn), the T/C [1] was 96 % of control, the T/C [2] was 100 % of control and the T/C [3] was 97 % of control. The T/C [4] was 95 % of control, the T/C [5] was 96 % of control and the T/C [6] was 101 % of control.

For `c1cc(C2CO2)ccc1Oc1ccc(C2CO2)cc1` (stereo not drawn), the T/C (dose: 1.0 mg/kg/injection, schedule: Q01DX Z (ip), vehicle: methylcellulose (MC)) was 96 % of control, the T/C (dose: 3.3 mg/kg/injection, schedule: Q01DX Z (ip), vehicle: methylcellulose (MC)) was 98 % of control and the T/C (dose: 10.0 mg/kg/injection, schedule: Q01DX Z (ip), vehicle: methylcellulose (MC)) was 104 % of control. For the same molecule, the T/C (dose: 33.0 mg/kg/injection, schedule: Q01DX Z (ip), vehicle: methylcellulose (MC)) was 98 % of control and the T/C (dose: 100.0 mg/kg/injection, schedule: Q01DX Z (ip), vehicle: methylcellulose (MC)) was 86 % of control.
